Earlier results, collected in patent US10332616B2, “Movable type method applied to protein-ligand binding” (University of Florida Research Foundation, Inc., priority 2013, dated 2019).

conditions: experimental solvation free energy, neutral compounds test set

Row | Exp. ΔGsolv [kcal/mol] | SMILES
1 | -1.3 | CCS [Compound 0137ethb]
2 | -1.54 | CSC [Compound 0140dim]
3 | -1.43 | CCSCC [Compound 0142die]
4 | -1.27 | CCCSCCC [Compound 0143dip]
5 | -2.73 | CSc1ccccc1 [Compound 0144thi]
6 | -6.77 | COCCO [Compound 0146met]
7 | -6.55 | COCCN [Compound 0147met]
8 | -7.17 | C1COCCN1 [Compound 0149mor]
9 | -9.51 | O=Cc1cccc(O)c1 [Compound 0150mhy]
10 | -10.48 | O=Cc1ccc(O)cc1 [Compound 0151phy]
11 | -4.31 | OCC(F)(F)F [Compound 0207tri]
12 | -4.16 | CC(O)C(F)(F)F (stereo not drawn) [Compound 0211tri]
13 | -0.12 | C=COCC(F)(F)F [Compound 0214tri]
14 | -1.63 | CCSSCC [Compound 0223die]
15 | -6.34 | CN1CCOCC1 [Compound 0227Nme]
16 | -9.71 | CC(N)=O [Compound 0233ethb]
17 | -10 | CNC(C)=O [Compound 0234ENmb]
18 | -10 | CNC(C)=O [Compound 0235ZNmb]
19 | -2.29 | CCCCCCCC=O [Compound 0237oct]
20 | -0.53 | CC(C)OC(C)C [Compound 0242dii]
21 | -3.12 | C1CCOCC1 [Compound 0244tet]
22 | -1.42 | c1ccsc1 [Compound 0245thi]
23 | -2.22 | CCOc1ccccc1 [Compound 0246eth]
24 | -9.63 | CN(C)C(=O)Nc1ccccc1 [Compound 0401amia]

Row | SMILES | Exp. ΔGsolv [kcal/mol]
25 | Nc1ccccc1 [Compound 0118ani] | -5.49
26 | CS [Compound 0136met] | -1.24
27 | CCCS [Compound 0138pro] | -1.05
28 | Sc1ccccc1 [Compound 0139thi] | -2.55
29 | C=CCO [Compound 0145pro] | -5.08
30 | FC(F)OC(Cl)C(F)(F)F (stereo not drawn) [Compound 0209chl] | 0.11
31 | OC(C(F)(F)F)C(F)(F)F [Compound 0212hex] | -3.77
32 | COP(=O)(OC)OC [Compound 0220tri] | -8.7
33 | CCOP(=O)(OCC)OCC [Compound 0221tri] | -7.8
34 | C1CCNCC1 [Compound 0225pipa] | -5.11
35 | CN [Compound 0228met] | -4.56
36 | CCCCCCCC(=O)OC [Compound 0238met] | -2.04
37 | COC(=O)c1ccccc1 [Compound 0240met] | -3.91
38 | N#Cc1cc(Br)c(O)c(Br)c1 [Compound 0425dbr] | -9
39 | N#Cc1c(Cl)cccc1Cl [Compound 0426dcl] | -5.22
40 | Nc1c(Cl)c(Cl)nc(C(=O)O)c1Cl [Compound 0428ami] | -11.96
41 | CCOP(=S)(OCC)Oc1ccc(Cl)cc1Cl [Compound 0438pho] | -3.86
42 | COP(=S)(OC)Oc1ccc([N+](=O)[O-])cc1 [Compound 0441pho] | -7.62
43 | CCCSP(=O)(OCC)Oc1ccc(Br)cc1Cl (stereo not drawn) [Compound 0442pho] | -4.09

same assay, conditions: experimental solvation free energy; test set with 372 neutral compounds

Row | SMILES | Exp. ΔGsolv [kcal/mol]
44 | Cc1ccccn1 [Compound 0119met] | -4.63
45 | Cc1cccnc1 [Compound 0120met] | -4.77
46 | Cc1ccncc1 [Compound 0121met] | -4.94
47 | CNc1ccccc1 [Compound 0122Nme] | -4.68
48 | Cc1ccnc(C)c1 [Compound 0123dim] | -4.86
49 | Cc1cccc(C)n1 [Compound 0125dim] | -4.6
50 | CC#N [Compound 0126eth] | -3.89
51 | CCC#N [Compound 0127pro] | -3.85
52 | CCCC#N [Compound 0128butb] | -3.64
53 | N#Cc1ccccc1 [Compound 0129ben] | -4.1
54 | CC[N+](=O)[O-] [Compound 0130nit] | -3.71
55 | CCC[N+](=O)[O-] [Compound 0131nit] | -3.34
56 | CC(C)[N+](=O)[O-] [Compound 0132nit] | -3.14
57 | CCCC[N+](=O)[O-] [Compound 0133nit] | -3.08
58 | Cc1ccccc1[N+](=O)[O-] [Compound 0135met] | -3.59
59 | C#CC=C [Compound 0148but] | 0.04
60 | CC(F)F [Compound 0154dif] | -0.11
61 | ClCCl [Compound 0161dic] | -1.36
62 | ClC(Cl)Cl [Compound 0162tri] | -1.07
63 | CCCl [Compound 0163chl] | -0.63
64 | CC(Cl)(Cl)Cl [Compound 0165tri] | -0.25
65 | ClCC(Cl)Cl [Compound 0166tri] | -1.95
66 | CCCCl [Compound 0167chla] | -0.27
67 | CC(C)Cl [Compound 0168chl] | -0.25
68 | C=CCl [Compound 0169chl] | -0.59
69 | C=CCCl [Compound 0170chl] | -0.57

Row | SMILES | Exp. ΔGsolv [kcal/mol]
70 | Cl/C=C\Cl [Compound 0171Zdi] | -1.17
71 | Cl/C=C/Cl [Compound 0172Edi] | -0.76
72 | ClC=C(Cl)Cl [Compound 0173tri] | -0.39
73 | Clc1ccccc1 [Compound 0174chl] | -1.12
74 | Clc1ccccc1Cl [Compound 0175odi] | -1.36
75 | Clc1ccc(Cl)cc1 [Compound 0176pdi] | -1.01
76 | CBr [Compound 0177bro] | -0.82
77 | BrCBr [Compound 0178dib] | -2.11
78 | BrC(Br)Br [Compound 0179tri] | -1.98
79 | CCBr [Compound 0180bro] | -0.7
80 | CCCBr [Compound 0182bro] | -0.56
81 | CC(C)Br [Compound 0183bro] | -0.48
82 | CCCCBr [Compound 0184bro] | -0.41
83 | CCCCCBr [Compound 0185bro] | -0.08
84 | Brc1ccccc1 [Compound 0186bro] | -1.46
85 | Brc1ccc(Br)cc1 [Compound 0187dib] | -2.3
86 | FC(F)(F)Br [Compound 0197bro] | 1.79
87 | FCCl [Compound 0198chl] | -0.77
88 | FC(F)Cl [Compound 0199chl] | -0.5
89 | FC(F)(F)F [Compound 0200tet] | 3.16
90 | FC(F)(F)C(Cl)Br (stereo not drawn) [Compound 0201bro] | -0.13
91 | ClCCBr [Compound 0202bro] | -1.95
92 | FC(Br)C(F)(F)F (stereo not drawn) [Compound 0203bro] | 0.52
93 | ClC(Cl)=C(Cl)Cl [Compound 0204tet] | 0.05
94 | FC(F)(F)CCl [Compound 0205chl] | 0.06
95 | FC(F)(Cl)C(F)(Cl)Cl [Compound 0206tri] | 1.77

Row | SMILES | Exp. ΔGsolv [kcal/mol]
96 | CCc1cnccn1 [Compound 0230eth] | -5.51
97 | Cn1cnc2c(N)ncnc21 [Compound 0402adn] | -13.6
98 | FC(F)(F)C(F)(F)F [Compound 0405hex] | 3.94
99 | FC(F)(F)C(F)(F)C(F)(F)F [Compound 0406oct] | 4.28
100 | ClCC(Cl)(Cl)Cl [Compound 0407tet] | -1.15
101 | ClC(Cl)(Cl)C(Cl)(Cl)Cl [Compound 0408hex] | -1.4
102 | CCC(C)Cl (stereo not drawn) [Compound 0409clb] | 0.07
103 | CCCCCCl [Compound 0410clp] | 0.07
104 | CCCC(C)Cl (stereo not drawn) [Compound 0411chp] | 0.07
105 | Cc1ccccc1Cl [Compound 0413clt] | -1.15
106 | Clc1ccccc1-c1ccccc1Cl [Compound 0414dcl] | -2.73
107 | Clc1cccc(-c2ccccc2)c1Cl [Compound 0415dcl] | -2.45
108 | Clc1ccccc1-c1cccc(Cl)c1Cl [Compound 0416dcl] | -1.99
109 | C=CCBr [Compound 0417brp] | -0.86
110 | CC(C)CBr [Compound 0418bri] | -0.03
111 | Cc1ccc(Br)cc1 [Compound 0420pbr] | -1.39
112 | FC(F)(Cl)Cl [Compound 0421dfl] | 1.69
113 | FC(Cl)(Cl)Cl [Compound 0422ftc] | 0.82
114 | ClC(Cl)(Cl)Br [Compound 0423brt] | -0.93
115 | FC(F)(F)C(F)(F)Cl [Compound 0424clp] | 2.86
116 | NC(=S)c1c(Cl)cccc1Cl [Compound 0427dcl] | -10.81
117 | COP(=O)(OC)OC=C(Cl)Cl [Compound 0433pho] | -6.61
118 | COP(=S)(OC)Oc1cc(Cl)c(Cl)cc1Cl [Compound 0444pho] | -5.06
119 | COP(=S)(OC)Oc1cc(Cl)c(Br)cc1Cl [Compound 0445pho] | -5.7
120 | C[N+](=O)[O-] [Compound 0506nit] | -3.95
